Laboratory results published in ChEMBL document CHEMBL1201862, “PubChem BioAssay data set” (2004).
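Grown in 96-well plates, cells were treated for 48 hours with each compound at five concentrations. Insufficient inhibition: endpoint recorded as highest concentration tested. GI50 = concentration required for 50% inhibition of growth.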 Activity calls are given as the source filed them. Rule as the data show it: active = GI50 up to about 1.1 µM and inactive = higher.

Legend:
Experiment in all cases: NCI tumour cell line growth inhibition, 48 h
HT-29 = system: HT-29
K562 = system: K562
SR = system: SR
SK-MEL-5 = system: SK-MEL-5
RXF 393 = system: RXF 393
UO-31 = system: UO-31
HL-60 = system: HL-60
SF-539 = system: SF-539
A549 = system: A549
SF-295 = system: SF-295
HCT-116 = system: HCT-116
A498 = system: A498
NCI-H226 = system: NCI-H226
HCT-15 = system: HCT-15
SNB-19 = system: SNB-19
SN12C = system: SN12C
NCI-H23 = system: NCI-H23
IGROV-1 = system: IGROV-1
HCC 2998 = system: HCC 2998

C=C1CC(C#N)(C#N)[C@@H]2CC3CCCC3[C@H]12.C=C1CC(C#N)(C#N)[C@H]2C3CCCC3C[C@@H]12 (some centres not stated)
GI50 (HT-29): 14 µM (inactive) | GI50 (K562): 16.8 µM (inactive) | GI50 (SR): 14.6 µM (inactive) | GI50 (SK-MEL-5): 24.7 µM (inactive) | GI50 (RXF 393): 22.1 µM (inactive) | GI50 (UO-31): 20.7 µM (inactive) | GI50 (HL-60): 20.5 µM (inactive) | GI50 (SF-539): 19.9 µM (inactive) | GI50 (A549): 10 µM (inactive) | GI50 (SF-295): 18.3 µM (inactive) | GI50 (HCT-116): 4.99 µM (inactive) | GI50 (A498): 19.7 µM (inactive) | GI50 (NCI-H226): 25.3 µM (inactive) | GI50 (HCT-15): 15.9 µM | GI50 (SNB-19): 29.8 µM (inactive) | GI50 (SN12C): 15.7 µM (inactive) | GI50 (NCI-H23): 10 µM (inactive) | GI50 (IGROV-1): 27.9 µM (inactive)

CC(Br)C(=O)NC(CO)C(=O)O (configuration not stated)
GI50 (HT-29): > 100 µM (inactive) | GI50 (K562): > 100 µM (inactive) | GI50 (SR): > 100 µM (inactive) | GI50 (SK-MEL-5): > 100 µM (inactive) | GI50 (RXF 393): > 100 µM (inactive) | GI50 (UO-31): > 100 µM (inactive) | GI50 (HL-60): > 100 µM (inactive) | GI50 (SF-539): > 100 µM (inactive) | GI50 (A549): > 100 µM (inactive) | GI50 (SF-295): > 100 µM (inactive) | GI50 (HCT-116): > 100 µM (inactive) | GI50 (A498): > 100 µM (inactive) | GI50 (NCI-H226): > 100 µM (inactive) | GI50 (HCT-15): > 100 µM | GI50 (SNB-19): > 100 µM (inactive) | GI50 (SN12C): > 100 µM (inactive) | GI50 (NCI-H23): > 100 µM (inactive) | GI50 (IGROV-1): > 100 µM (inactive)

CC1=C2c3c(C)ccc4ccc(C)c(c34)C2(O)C(C)C1=O (configuration not stated)
GI50 (HT-29): > 100 µM (inactive) | GI50 (K562): 49.5 µM (inactive) | GI50 (SR): > 100 µM (inactive) | GI50 (SK-MEL-5): 29.2 µM (inactive) | GI50 (UO-31): 21.3 µM (inactive) | GI50 (HL-60): 28.2 µM (inactive) | GI50 (SF-539): > 100 µM (inactive) | GI50 (A549): 40.3 µM (inactive) | GI50 (HCT-116): 43.8 µM (inactive) | GI50 (A498): > 100 µM (inactive) | GI50 (NCI-H226): > 100 µM (inactive) | GI50 (HCT-15): 42.8 µM | GI50 (SNB-19): 44.3 µM (inactive) | GI50 (SN12C): > 100 µM (inactive) | GI50 (HCC 2998): > 100 µM (inactive) | GI50 (IGROV-1): 49.2 µM (inactive)

Cc1cccc(/C=N/NC(=S)N(C)CCc2ccccn2)n1
GI50 (HT-29): 0.265 µM (active) | GI50 (K562): 0.163 µM (active) | GI50 (SR): 0.246 µM (active) | GI50 (SK-MEL-5): 0.314 µM (active) | GI50 (UO-31): 0.271 µM (active) | GI50 (HL-60): 0.0429 µM (active) | GI50 (SF-539): 0.407 µM (active) | GI50 (A549): 0.417 µM (active) | GI50 (SF-295): 0.383 µM (active) | GI50 (HCT-116): 0.256 µM (active) | GI50 (A498): 0.285 µM (active) | GI50 (NCI-H226): 0.39 µM (active) | GI50 (HCT-15): 0.196 µM | GI50 (SNB-19): 0.729 µM (active) | GI50 (SN12C): 0.378 µM (active) | GI50 (NCI-H23): 0.467 µM (active) | GI50 (HCC 2998): 0.453 µM (active) | GI50 (IGROV-1): 0.366 µM (active)

O=C1/C(=C/c2ccco2)NC(=S)N1CN1CCOCC1
GI50 (HT-29): > 100 µM (inactive) | GI50 (K562): > 100 µM (inactive) | GI50 (SR): > 100 µM (inactive) | GI50 (SK-MEL-5): > 100 µM (inactive) | GI50 (UO-31): > 100 µM (inactive) | GI50 (A549): > 100 µM (inactive) | GI50 (SF-295): > 100 µM (inactive) | GI50 (HCT-116): > 100 µM (inactive) | GI50 (A498): > 100 µM (inactive) | GI50 (NCI-H226): > 100 µM (inactive) | GI50 (HCT-15): > 100 µM | GI50 (SNB-19): > 100 µM (inactive) | GI50 (SN12C): > 100 µM (inactive) | GI50 (NCI-H23): > 100 µM (inactive) | GI50 (IGROV-1): > 100 µM (inactive)

COc1cc(C2C(C#N)=C(N)OC3=C2CCS(=O)(=O)c2ccc(C)cc23)cc(OC)c1OC (configuration not stated)
GI50 (HT-29): > 100 µM (inactive) | GI50 (K562): > 100 µM (inactive) | GI50 (SR): 47.8 µM (inactive) | GI50 (SK-MEL-5): > 100 µM (inactive) | GI50 (UO-31): > 100 µM (inactive) | GI50 (HL-60): > 100 µM (inactive) | GI50 (A549): > 100 µM (inactive) | GI50 (HCT-116): > 100 µM (inactive) | GI50 (A498): > 100 µM (inactive) | GI50 (NCI-H226): > 100 µM (inactive) | GI50 (HCT-15): > 100 µM | GI50 (SNB-19): > 100 µM (inactive) | GI50 (SN12C): > 100 µM (inactive) | GI50 (NCI-H23): > 100 µM (inactive) | GI50 (HCC 2998): > 100 µM (inactive) | GI50 (IGROV-1): > 100 µM (inactive)

CSC1NC(c2ccc(Cl)cc2)=C(C#N)C(=O)N1C1OCC(OC(C)=O)C(OC(C)=O)C1OC(C)=O (configuration not stated)
GI50 (HT-29): > 100 µM (inactive) | GI50 (K562): > 100 µM (inactive) | GI50 (SR): 24.5 µM (inactive) | GI50 (SK-MEL-5): 81.1 µM (inactive) | GI50 (UO-31): 53.3 µM (inactive) | GI50 (SF-539): 67.3 µM (inactive) | GI50 (SF-295): > 100 µM (inactive) | GI50 (A498): 34.8 µM (inactive) | GI50 (NCI-H226): > 100 µM (inactive) | GI50 (HCT-15): 62.1 µM | GI50 (SNB-19): > 100 µM (inactive) | GI50 (SN12C): 45.1 µM (inactive) | GI50 (NCI-H23): > 100 µM (inactive) | GI50 (HCC 2998): > 100 µM (inactive) | GI50 (IGROV-1): > 100 µM (inactive)

CCOC(=O)/C(C(N)=O)=C(O)/C(O)=C/C(=O)c1ccc(Cl)cc1
GI50 (HT-29): 21.8 µM (inactive) | GI50 (SR): 21.7 µM (inactive) | GI50 (SK-MEL-5): 19.9 µM (inactive) | GI50 (RXF 393): 15.9 µM (inactive) | GI50 (UO-31): 18.6 µM (inactive) | GI50 (A549): 32.4 µM (inactive) | GI50 (SF-295): 29.2 µM (inactive) | GI50 (HCT-116): 14.1 µM (inactive) | GI50 (A498): > 100 µM (inactive) | GI50 (NCI-H226): 23.2 µM (inactive) | GI50 (HCT-15): 17.7 µM | GI50 (SNB-19): 33.3 µM (inactive) | GI50 (SN12C): 16.5 µM (inactive) | GI50 (NCI-H23): 18.3 µM (inactive) | GI50 (IGROV-1): 18 µM (inactive)

CNn1c(C)n[nH]c1=O
GI50 (K562): > 100 µM (inactive) | GI50 (SR): > 100 µM (inactive) | GI50 (SK-MEL-5): > 100 µM (inactive) | GI50 (UO-31): > 100 µM (inactive) | GI50 (HL-60): > 100 µM (inactive) | GI50 (SF-539): > 100 µM (inactive) | GI50 (A549): > 100 µM (inactive) | GI50 (SF-295): > 100 µM (inactive) | GI50 (HCT-116): > 100 µM (inactive) | GI50 (A498): > 100 µM (inactive) | GI50 (NCI-H226): > 100 µM (inactive) | GI50 (HCT-15): > 100 µM | GI50 (SNB-19): > 100 µM (inactive) | GI50 (SN12C): > 100 µM (inactive) | GI50 (NCI-H23): > 100 µM (inactive) | GI50 (HCC 2998): > 100 µM (inactive) | GI50 (IGROV-1): > 100 µM (inactive)

OCCOCCN1CCN(c2nc(N3CCCC3)c3nc(Cl)c(NCc4ccccc4)nc3n2)CC1
GI50 (HT-29): 3.92 µM (inactive) | GI50 (K562): 3.94 µM (inactive) | GI50 (SR): 4.38 µM (inactive) | GI50 (SK-MEL-5): 5.55 µM (inactive) | GI50 (RXF 393): 1.98 µM (inactive) | GI50 (UO-31): 9.4 µM (inactive) | GI50 (HL-60): 12.1 µM (inactive) | GI50 (SF-539): 24.8 µM (inactive) | GI50 (A549): 13 µM (inactive) | GI50 (SF-295): 14.5 µM (inactive) | GI50 (HCT-116): 12.8 µM (inactive) | GI50 (NCI-H226): 20.8 µM (inactive) | GI50 (HCT-15): 4.27 µM | GI50 (SNB-19): 15.3 µM (inactive) | GI50 (SN12C): 15.6 µM (inactive) | GI50 (NCI-H23): 16.3 µM (inactive) | GI50 (HCC 2998): 4.29 µM (inactive) | GI50 (IGROV-1): 18.3 µM (inactive)

Cc1ccc2c(O)cc(-c3ccccc3)nc2n1
GI50 (HT-29): 0.0378 µM (active) | GI50 (K562): 0.0366 µM (active) | GI50 (SR): < 0.0306 µM (active) | GI50 (SK-MEL-5): 0.0512 µM (active) | GI50 (RXF 393): 0.127 µM (active) | GI50 (UO-31): 0.593 µM (active) | GI50 (HL-60): 0.0255 µM (active) | GI50 (SF-539): 0.191 µM (active) | GI50 (A549): 0.221 µM (active) | GI50 (SF-295): 0.0585 µM (active) | GI50 (HCT-116): 0.0507 µM (active) | GI50 (NCI-H226): 0.472 µM (active) | GI50 (HCT-15): 0.0352 µM | GI50 (SNB-19): 0.309 µM (active) | GI50 (SN12C): 0.416 µM (active) | GI50 (NCI-H23): 0.313 µM (active) | GI50 (HCC 2998): 0.157 µM (active) | GI50 (IGROV-1): 0.11 µM (active)

Cc1ccc([N+](=O)[O-])cc1S(=O)(=O)Nc1ccc(C(=O)/C=C/c2ccccc2)cc1
GI50 (HT-29): 25.4 µM (inactive) | GI50 (K562): 4.79 µM (inactive) | GI50 (SR): 22.1 µM (inactive) | GI50 (SK-MEL-5): 16.3 µM (inactive) | GI50 (RXF 393): 11.4 µM (inactive) | GI50 (UO-31): 18.4 µM (inactive) | GI50 (HL-60): 25.3 µM (inactive) | GI50 (SF-539): 30.5 µM (inactive) | GI50 (A549): 23.3 µM (inactive) | GI50 (SF-295): 20.3 µM (inactive) | GI50 (HCT-116): 15.7 µM (inactive) | GI50 (NCI-H226): 28.6 µM (inactive) | GI50 (HCT-15): 19.5 µM | GI50 (SNB-19): 18.6 µM (inactive) | GI50 (SN12C): 19.8 µM (inactive) | GI50 (NCI-H23): 16.7 µM (inactive) | GI50 (HCC 2998): 17.7 µM (inactive) | GI50 (IGROV-1): 18.7 µM (inactive)
